Measured values as given in the supplement of paper PMC4862054.

What was measured:
Settings in all cases: incubation time: 72 h
BT-474 [1] = assay: normalised response (% of control), CellTox Green; higher = less cell death (100 = DMSO, 0 = benzethonium chloride kill control)
In short: (§1)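 Each value is the plate-normalised signal at one concentration of the series. Breast cancer cell lines (20 µl suspension) were incubated 72 h in 384-well plates with compound at 5 concentrations in 10-fold steps over a compound-specific 10,000-fold range. CellTox Green and then CellTiter-Glo were read, and each plate was scaled to 0.1 % DMSO (100) and a positive kill control (0).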

BT-549 [2] = assay: as above
In short: as §1

CAL-120 [3] = assay: as above
In short: as §1

CAL-148 [4] = assay: as above
In short: as §1

CAL-51 [5] = assay: as above
In short: as §1

CAL-85-1 [6] = assay: as above
In short: as §1

DU-4475 [7] = assay: as above
In short: as §1

HCC1143 [8] = assay: as above
In short: as §1

HCC1599 [9] = assay: as above
In short: as §1

HDQ-P1 [10] = assay: as above
In short: as §1

Hs578T [11] = assay: as above
In short: as §1

MCF-10A [12] = assay: as above
In short: as §1

MDA-MB-231 [13] = assay: as above
In short: as §1

MDA-MB-436 [14] = assay: as above
In short: as §1

MDA-MB-453 [15] = assay: as above
In short: as §1

MDA-MB-468 [16] = assay: as above
In short: as §1

MFM-223 [17] = assay: as above
In short: as §1

BT-474 [18] = assay: normalised response (% of control), CellTiter-Glo; higher = more viable cells (100 = DMSO, 0 = benzethonium chloride kill control)
Protocol: (§2)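 DSRT, 72 h incubation, CellTox Green / CellTiter-Glo readout. Signal is normalised to DMSO and benzethonium chloride controls. Value is the normalised response at dose 3.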

BT-549 [19] = assay: as above
Protocol: as §2

CAL-120 [20] = assay: as above
Protocol: as §2

CAL-148 [21] = assay: as above
Protocol: as §2

CAL-85-1 [22] = assay: as above
Protocol: as §2

DU-4475 [23] = assay: as above
Protocol: as §2

HCC1143 [24] = assay: as above
Protocol: as §2

HCC1599 [25] = assay: as above
Protocol: as §2

HCC1937 [26] = assay: as above
Protocol: as §2

HDQ-P1 [27] = assay: as above
Protocol: as §2

MCF-10A [28] = assay: as above
Protocol: as §2

MDA-MB-231 [29] = assay: as above
Protocol: as §2

MDA-MB-436 [30] = assay: as above
Protocol: as §2

MDA-MB-453 [31] = assay: as above
Protocol: as §2

SK-BR-3 [32] = assay: as above
Protocol: as §2

HCC1937 [33] = assay: normalised response (% of control), CellTox Green; higher = less cell death (100 = DMSO, 0 = benzethonium chloride kill control)
In short: as §1

BT-474 [34] = assay: normalised response (% of control), CellTiter-Glo; higher = more viable cells (100 = DMSO, 0 = benzethonium chloride kill control); remark: listed apart in the source
In short: as §1

BT-549 [35] = assay: as above; remark: listed apart in the source
In short: as §1

CAL-120 [36] = assay: as above; remark: listed apart in the source
In short: as §1

CAL-148 [37] = assay: as above; remark: listed apart in the source
In short: as §1

CAL-51 [38] = assay: as above
In short: as §1

CAL-85-1 [39] = assay: as above; remark: listed apart in the source
In short: as §1

DU-4475 [40] = assay: as above; remark: listed apart in the source
In short: as §1

HCC1143 [41] = assay: as above; remark: listed apart in the source
In short: as §1

HCC1599 [42] = assay: as above; remark: listed apart in the source
In short: as §1

HCC1937 [43] = assay: as above; remark: listed apart in the source
In short: as §1

HDQ-P1 [44] = assay: as above; remark: listed apart in the source
In short: as §1

Hs578T [45] = assay: as above
In short: as §1

MCF-10A [46] = assay: as above; remark: listed apart in the source
In short: as §1

MDA-MB-231 [47] = assay: as above; remark: listed apart in the source
In short: as §1

MDA-MB-436 [48] = assay: as above; remark: listed apart in the source
In short: as §1

MDA-MB-453 [49] = assay: as above; remark: listed apart in the source
In short: as §1

MDA-MB-468 [50] = assay: as above
In short: as §1

MFM-223 [51] = assay: as above
In short: as §1

SK-BR-3 [52] = assay: as above; remark: listed apart in the source
In short: as §1

Row | Structure (SMILES) | normalised response (BT-474 [1]) [%] | normalised response (BT-549 [2]) [%] | normalised response (CAL-120 [3]) [%] | normalised response (CAL-148 [4]) [%] | normalised response (CAL-51 [5]) [%] | normalised response (CAL-85-1 [6]) [%] | normalised response (DU-4475 [7]) [%] | normalised response (HCC1143 [8]) [%] | normalised response (HCC1599 [9]) [%] | normalised response (HDQ-P1 [10]) [%] | normalised response (Hs578T [11]) [%] | normalised response (MCF-10A [12]) [%] | normalised response (MDA-MB-231 [13]) [%] | normalised response (MDA-MB-436 [14]) [%] | normalised response (MDA-MB-453 [15]) [%] | normalised response (MDA-MB-468 [16]) [%] | normalised response (MFM-223 [17]) [%] | normalised response (HCC1937 [33]) [%] | normalised response (BT-474 [34]) [%] | normalised response (BT-549 [35]) [%] | other results
1 | CS(=O)(=O)N1CCN(Cc2cc3nc(-c4cccc5[nH]ncc45)nc(N4CCOCC4)c3s2)CC1 [Pictilisib] (100 nM) | 98.8 | 101 | 102 | 92.1 | 103 | 107 | 101 | 110 | 108 | 107 | 109 | 106 | 92.3 | 107 | 104 | 143 | 105 |  |  |  | normalised response (BT-474 [18]): 86.9%; normalised response (BT-549 [19]): 86.7%; normalised response (CAL-120 [20]): 89.6%; normalised response (CAL-148 [21]): 98.4%; normalised response (CAL-85-1 [22]): 106%; normalised response (DU-4475 [23]): 92%; normalised response (HCC1143 [24]): 91.7%; normalised response (HCC1599 [25]): 93.6%; normalised response (HCC1937 [26]): 94.7%; normalised response (HDQ-P1 [27]): 82.4%; normalised response (MCF-10A [28]): 84.8%; normalised response (MDA-MB-231 [29]): 86.2%; normalised response (MDA-MB-436 [30]): 92%; normalised response (MDA-MB-453 [31]): 88.5%; normalised response (SK-BR-3 [32]): 74.1%
2 | CC(=O)OC[C@H]1O[C@@H]([S-])[C@H](OC(C)=O)[C@@H](OC(C)=O)[C@@H]1OC(C)=O.CCP(CC)CC.[Au+] [Auranofin] (250 nM) | 95.5 | 103 | 107 | 107 | 80.4 | 120 | 110 | 123 | 104 | 115 | 103 | 115 | 125 | 109 | 105 | 79.5 | 98.4 | 108 | 99 | 68.9 | normalised response (CAL-120 [36]): 99.4%; normalised response (CAL-148 [37]): 101%; normalised response (CAL-51 [38]): 46.3%; normalised response (CAL-85-1 [39]): 93.2%; normalised response (DU-4475 [40]): 102%; normalised response (HCC1143 [41]): 91.8%; normalised response (HCC1599 [42]): 112%; normalised response (HCC1937 [43]): 87.4%; normalised response (HDQ-P1 [44]): 101%; normalised response (Hs578T [45]): 97.4%; normalised response (MCF-10A [46]): 118%; normalised response (MDA-MB-231 [47]): 101%; normalised response (MDA-MB-436 [48]): 90.7%; normalised response (MDA-MB-453 [49]): 90.7%; normalised response (MDA-MB-468 [50]): 18.5%; normalised response (MFM-223 [51]): 98.5%; normalised response (SK-BR-3 [52]): 99.8%
3 | O=S(=O)(c1cccc2cnccc12)N1CCCNCC1 [Fasudil] (5000 nM) | 97.1 | 99.9 | 94.5 | 98.2 | 110 | 102 | 99 | 98.9 | 103 | 75.7 | 66 | 83.4 | 97.6 | 95.3 | 100 | 70.9 | 94.8 | 109 | 96.5 | 95.9 | normalised response (CAL-120 [36]): 89.4%; normalised response (CAL-148 [37]): 97.1%; normalised response (CAL-51 [38]): 94.9%; normalised response (CAL-85-1 [39]): 122%; normalised response (DU-4475 [40]): 96.8%; normalised response (HCC1143 [41]): 96.3%; normalised response (HCC1599 [42]): 101%; normalised response (HCC1937 [43]): 105%; normalised response (HDQ-P1 [44]): 101%; normalised response (Hs578T [45]): 99.7%; normalised response (MCF-10A [46]): 89%; normalised response (MDA-MB-231 [47]): 106%; normalised response (MDA-MB-436 [48]): 113%; normalised response (MDA-MB-453 [49]): 95.7%; normalised response (MDA-MB-468 [50]): 105%; normalised response (MFM-223 [51]): 102%; normalised response (SK-BR-3 [52]): 107%
4 | O=C(Nc1c[nH]nc1-c1nc2ccc(CN3CCOCC3)cc2[nH]1)NC1CC1 [AT9283] (100 nM) | 103 | 121 | 84.9 | 20.3 | 71.7 | 84.6 | 97.6 | 101 | 110 | 99.6 | 94.9 | 70.3 | 14.5 | 86.7 | 100 | 70.7 | 103 | 85 | 73.8 | 82.1 | normalised response (CAL-120 [36]): 85%; normalised response (CAL-148 [37]): 46.6%; normalised response (CAL-51 [38]): 69%; normalised response (CAL-85-1 [39]): 105%; normalised response (DU-4475 [40]): 88.9%; normalised response (HCC1143 [41]): 84.8%; normalised response (HCC1599 [42]): 102%; normalised response (HCC1937 [43]): 93.8%; normalised response (HDQ-P1 [44]): 96.9%; normalised response (Hs578T [45]): 88.8%; normalised response (MCF-10A [46]): 71.8%; normalised response (MDA-MB-231 [47]): 78.8%; normalised response (MDA-MB-436 [48]): 99%; normalised response (MDA-MB-453 [49]): 141%; normalised response (MDA-MB-468 [50]): 29.7%; normalised response (MFM-223 [51]): 89.2%; normalised response (SK-BR-3 [52]): 86.4%
